Legend:
[1] = target: T1, kappa opioid receptor (Homo sapiens, UniProt P41145); test: Ke at kappa, CHO membranes; assay type: biochemical; design: expressed in transfected cells; host or cells: CHO; details: Table 7, CHO membranes
[2] = target: T2, delta opioid receptor (Homo sapiens, UniProt P41143); test: Stimulation of [35S]GTPγS binding (coupling to G proteins); assay type: biochemical; design: expressed in transfected cells; host or cells: transfected cells; details: for Emax / EC50: Table 8; for EC50: read-out: delta EC50
[3] = target: T1, kappa opioid receptor; test: biochemical; assay type: binding; design: expressed in transfected cells; host or cells: transfected cells; details: Table 7, CHO membranes; for Ki: read-out: Ki kappa
[4] = target: T2, delta opioid receptor; test: biochemical; assay type: binding; design: expressed in transfected cells; host or cells: transfected cells; details: Table 7, CHO membranes; for Ki: read-out: Ki delta
[5] = system: adult male rats; test: Precipitation of somatic signs of withdrawal after acute morphine; assay type: in vivo, rat; details: s.c., 4 hr after morphine 5.0 mg/kg
[6] = target: T1, kappa opioid receptor; test: biochemical; assay type: biochemical; design: expressed in transfected cells; host or cells: transfected cells; details: for Emax / EC50: Table 8; for Emax: read-out: kappa % stimulation; for EC50: read-out: kappa EC50
[7] = target: T2, delta opioid receptor; test: Ke at delta, CHO membranes; assay type: biochemical; design: expressed in transfected cells; host or cells: CHO; details: Table 7, CHO membranes

T1 sequence (P41145 whole entry): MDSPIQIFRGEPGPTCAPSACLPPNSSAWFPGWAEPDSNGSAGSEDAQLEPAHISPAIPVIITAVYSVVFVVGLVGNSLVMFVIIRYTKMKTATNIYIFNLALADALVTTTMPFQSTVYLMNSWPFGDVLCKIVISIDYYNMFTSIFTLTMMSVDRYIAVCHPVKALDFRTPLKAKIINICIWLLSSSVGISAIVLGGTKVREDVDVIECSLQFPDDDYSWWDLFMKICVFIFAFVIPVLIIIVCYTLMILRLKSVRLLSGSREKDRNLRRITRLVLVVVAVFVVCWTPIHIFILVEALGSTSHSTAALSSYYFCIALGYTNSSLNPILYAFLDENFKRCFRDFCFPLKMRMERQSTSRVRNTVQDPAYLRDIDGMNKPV
T2 sequence (P41143 whole entry): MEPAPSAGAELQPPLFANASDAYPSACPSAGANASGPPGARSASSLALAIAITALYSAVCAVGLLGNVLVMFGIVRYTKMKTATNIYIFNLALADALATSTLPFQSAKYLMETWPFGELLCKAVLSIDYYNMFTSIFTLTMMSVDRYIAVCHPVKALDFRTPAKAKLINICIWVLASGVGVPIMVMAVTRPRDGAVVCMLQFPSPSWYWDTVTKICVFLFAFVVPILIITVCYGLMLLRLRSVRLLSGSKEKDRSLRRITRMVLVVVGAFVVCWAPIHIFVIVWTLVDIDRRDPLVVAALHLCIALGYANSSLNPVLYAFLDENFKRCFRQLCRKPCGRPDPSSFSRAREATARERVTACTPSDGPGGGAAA

SMILES	Ke(other) (kappa) [1]	Emax [2] [%]	EC50 [2] [nM]	agonist/antagonist character at the delta receptor ([2]; based on [35S]GTPγS binding)	Ki kappa [3]	Ki [3] [nM]	Ki delta [4]	Ki [4] [nM]	approximate EC50 for precipitation of somatic signs of withdrawal [5]	Emax [6] [%]	EC50 [6] [nM]	agonist/antagonist character at the kappa receptor ([6]; based on [35S]GTPγS binding)	Ke(other) (delta) [7]
O=C(CC1OC(CO)C(O)C(O)C1O)NC1CCC2(O)C3Cc4ccc(O)c5c4C2(CCN3CC2CC2)C1O5 (stereo not drawn) [6a, 14-Hydroxy-17-(cyclopropylmethyl)nordesmorphine-6-acetamidoglucose]	13.39 ± 1.51	43.1	90.9	partial agonist	moderate affinity	10.4 ± 2.8	moderate affinity	91.3 ± 3.8	approximately 1 mg/kg	11	11.2	strong antagonist	
O=C(C[C@@H]1O[C@H](COCc2ccccc2)[C@@H](OCc2ccccc2)[C@H](OCc2ccccc2)[C@H]1OCc1ccccc1)NC1CC[C@@]2(O)[C@H]3Cc4ccc(O)c5c4[C@@]2(CCN3CC2CC2)[C@H]1O5 (stereo partly drawn) [compound 5, 6-acetamido-2,3,4,6-tetra-O-benzyl-D-glucopyranosyl-14-Hydroxy-17-(cyclopropylmethyl)nordesmorphine]		20.5	107		moderate affinity	39 ± 6.3	low affinity	140 ± 13.9		45.5	10.8		10.35 ± 2.01
